{
  "source": "patent US20160199463A1",
  "about": "“HDAC2 DEFENDS VASCULAR ENDOTHELIUM FROM INJURY” (The Johns Hopkins University, priority 2014, published 2016)",
  "key": {"[1]": {"test_system": "arginase activity in HAECs", "assay": "Arginase activity assay (urea production) in HAEC lysates", "format": "cell-based, human", "protocol": "HAEC were lysed using RIPA buffer (50 mM of Tris.HCl, pH 7.5, 0.1 mM EDTA, 0.1% Triton X-100, and protease inhibitor), and centrifuged for 30 min at 14,000 g at 4° C. 50 μL (50-100 μg) of supernatant was added to 75 μl of 10 mM MnCl2 made in Tris-HCl (50 mM, pH 7.5) and heat activated by incubating at 55-60° C. for 10 min. 50 μL of L-Arginine that was prepared in 300 mM Tris-HCL, pH 9.7 were then added to the activated cell lysates to achieve final concentrations of 150 mM and incubated at 37° C. for 3 hrs with shaking. The reaction was stopped by adding 400 μL of an acid solution (H2SO4: H3PO4: H20=1:3:7). For colorimetric determination of urea, α-isonitrosopropiophenone (25 μL, 9% in ethanol) was added and further heated at 100° C. for 45 min. Samples were allowed to cool at room temperature in the dark for 10 min and urea concentration was determined by measuring absorbance at 550 nm using a spectrophotometer."}, "[2]": {"test_system": "SIRT", "details": "cited from earlier work"}, "[3]": {"test_system": "human ARG2 promoter", "assay": "Human Arg2 promoter assay using luciferase activity in HAECs", "format": "cell-based", "protocol": "Chromosomal DNA was prepared from HAECs using Trizol reagent as per manufacturer's protocol (Life sciences). Promoter fragments of Arg2 were amplified by PCR using specific primer sets as follows.\nPI Forward 5′-GGGCTCGAGTGAGGTGAAATAAATTTCAGGAGTTTA-3′ (SEQ ID NO: 24); Reverse 5′-GCCAAGCTTAGCCGGGAGTGAGCGCCACCGCCC-3′ (SEQ ID NO: 25), 1 Kb; PII Forward 5′-GGGCTCGAGATAACCAGCGCTCCCGTTATTCAG-3′ (SEQ ID NO: 26); Reverse 5′-GCCAAGCTTAGCCGGGAGTGAGCGCCACCGCCC-3′ (SEQ ID NO: 27), 0.3 Kb; PIII Forward 5′-GGGCTCGAGGTTCAGGAACCTGGCATGGGCCGG-3′ (SEQ ID NO: 28); Reverse 5′-GCCAAGCTTAGCCGGGAGTGAGCGCCACCGCCC-3′ (SEQ ID NO: 29), 0.65 Kb; PIV Forward 5′-GGGCTCGAGTGAGGTGAAATAAATTTCAGGAGTTTA-3′ (SEQ ID NO: 30); Reverse 5′-GCCAAGCTTCCGGCCCATGCCAGGTTCCTGAAC-3′ (SEQ ID NO: 31), 0.3 kb.\nThese were cloned into the restriction sites for XhoI and HindIII on the pGL3-enhancer vector (Promega Co.). HAECs were transfected with the plasmids using Fugene 6 reagent (Roche Co.) and luciferase activity was measured by Dual-luciferase reporter assay system (Promega Co.). The luciferase activity was reported as relative luciferase units by dividing firefly luciferase activity by Renilla luciferase activity."}, "[4]": {"test_system": "Arg2 mRNA", "assay": "Arg2 mRNA in HAECs (RT-PCR, real-time PCR)", "format": "cell-based, human", "details": "preincubated with TSA", "protocol": "Total RNA was extracted from segments of mice aortas and HAEC using Trizol and PureLink (Invitrogen). RNA was then reverse transcribed with oligo dT primers to obtain cDNA and quantitative real time PCR (Applied Biosystems) was performed using SYBR Green Supermix mix (Applied Biosystems) whereas semiquantitative RTPCR was performed using conventional Biorad PCR machine and the following primer sets: Real Time PCR data are expressed as “fold change”, which is calculated as 2-ΔΔCt."}, "[5]": {"test_system": "aortic rings from Arg2−/− mice", "assay": "Force tension (wire) myography, vascular relaxation of aortic rings from Arg2-/- mice", "format": "cell-based, mouse", "details": "Arg2−/− mice; TSA 200 nmol/L; n=6", "protocol": "Mouse aorta was isolated and cleaned in ice-cold Krebs-Ringer-bicarbonate solution containing the following (in mM): 118.3 NaCl, 4.7 KCl, 1.6 CaCl2, 1.2 KH2 PO4, 25 NaHCO3, 1.2 MgSO4, and 11.1 dextrose. The aorta was immersed in a bath filled with constantly oxygenated Krebs buffer at 37° C. Equal size thoracic aortic rings (2 mm) were mounted using a microscope, ensuring no damage to the smooth muscle or endothelium. One end of the aortic rings was connected to a transducer, and the other to a micromanipulator. Aorta was passively stretched to an optimal resting tension using the micromanipulator, after which a dose of 60 mM KCl was administered, and repeated after a wash with Krebs buffer. After these washes, all vessels were allowed to equilibrate for 20-30 min in the presence of indomethacin (3 μM). Phenylephrine (1 μM) was administered to induce vasoconstriction. A dosedependent response (1 nM to 10 μM), with the muscarinic agonist, ACH or nitric oxide donor, SNP, was then performed as necessary. The responses were repeated in the presence of inhibitors. Relaxation responses were calculated as a percentage of tension following pre-constriction. Sigmoidal dose-response curves were fitted to data with the minimum constrained to 0. Two to four rings were isolated from each animal and the number of animals in each group (n) was 6."}},
  "data": [
    {"smiles": "CC(/C=C/C(=O)NO)=C\\[C@@H](C)C(=O)c1ccc(N(C)C)cc1", "note": "[TSA, trichostatin A]", "values": [
      {"measurement": "HAEC arginase activity, short-term", "setting": "[1]; 30 minutes, nicotinamide 5 mmol/L, TSA 1 μmol/L", "result": "no effect"},
      {"measurement": "total arginase activity", "setting": "[1]; TSA 400 nmol/L, 18 hours", "result": "increased"},
      {"measurement": "block of SIRT", "setting": "[2]", "result": "do not block"},
      {"measurement": "Arg2 promoter activity (luciferase)", "setting": "[3]; TSA 1 μmol/L, 8 hours, versus vehicle", "result": "increased"},
      {"measurement": "Arg2 promoter activity, dose dependence", "setting": "[3]; increasing doses of TSA", "result": "dose dependent"},
      {"measurement": "Arg2 mRNA", "setting": "[4]", "result": "substantially upregulated"},
      {"measurement": "Emax endothelial cell-dependent vasorelaxation", "setting": "[5]", "result": "66.3±7.54", "unit": "%"}
    ]}
  ]
}
